Assay results from patent US9969710B2, “Heteroaryl compounds as IRAK inhibitors and uses thereof” (Merck Patent GmbH, priority 2015, dated 2018).

Experiments:
IRAK1 = target: T1, IRAK1 (Homo sapiens, UniProt P51617); assay: IRAK1 enzymatic assay (ADP-Glo luminescence); format: biochemical; settings: human recombinant His-TEV-IRAK1 (194-712), ATP 1 μM; read-out: IRAK 1 IC50
T1 construct: His-TEV-IRAK1 (194-712); His (N); TEV cleavage site (N)
Method in brief: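 His-TEV-IRAK1(194-712) ([…]) preincubated 15 min RT with compounds (10 μM–0.5 nM) in 50 mM Hepes pH 7.0, 10 mM MgCl2, 2 mM DTT, 0.1% BSA. Reaction started with 1 μM ATP, 2 h RT. ADP formed read by ADP-Glo luminescence.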

IRAK4 = target: T2, IRAK4 (Homo sapiens, UniProt Q9NWZ3); assay: IRAK4 enzymatic assay (ADP-Glo luminescence); format: biochemical; settings: human recombinant His-TEV-IRAK4 (1-460), STK1-biotin peptide substrate
T2 construct: His-TEV-IRAK4 (1-460); His (N); TEV cleavage site (N)
T2 sequence (Q9NWZ3 1-460): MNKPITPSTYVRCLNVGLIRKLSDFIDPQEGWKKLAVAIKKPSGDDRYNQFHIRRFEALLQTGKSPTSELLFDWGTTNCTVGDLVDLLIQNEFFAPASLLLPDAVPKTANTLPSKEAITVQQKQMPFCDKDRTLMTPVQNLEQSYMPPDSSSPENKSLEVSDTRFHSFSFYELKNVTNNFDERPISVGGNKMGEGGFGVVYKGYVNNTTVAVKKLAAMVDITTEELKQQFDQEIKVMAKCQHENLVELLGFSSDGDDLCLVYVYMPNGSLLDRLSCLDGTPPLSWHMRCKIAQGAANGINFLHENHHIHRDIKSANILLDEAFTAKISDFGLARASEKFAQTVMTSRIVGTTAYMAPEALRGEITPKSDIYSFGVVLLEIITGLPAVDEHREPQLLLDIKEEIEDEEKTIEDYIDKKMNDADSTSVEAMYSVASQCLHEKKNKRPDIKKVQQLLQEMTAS
Method in brief: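 His-TEV-IRAK4(1-460) at […] was preincubated with compound (10 μM to 0.5 nM) for 15 min at RT in 50 mM Hepes pH 7.0 with MgCl2, MnCl2, DTT, BSA and Triton. Reactions with ATP ([…]) and STK1-biotin peptide (300 nM) ran 2 h at RT. ADP formed was read by ADP-Glo luminescence.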

[1] = system: TLR7 induced IL-6 secretion in human mononuclear cells (PBMC's); assay: TLR7 induced IL-6 in human PBMC's; format: cell-based; settings: Homo sapiens, PBMC, TLR7 specific ligand 2 uM overnight, IL-6 AlphaLISA
Method in brief: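 Fresh or frozen healthy-donor PBMCs pre-treated 30 min at 37 °C with compounds (25 uM to 0.4 nM) before overnight (16-18 h) stimulation with TLR7 ligand at 2 uM. IL-6 in supernatant quantified by AlphaLISA.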

T1 sequence (P51617 194-712): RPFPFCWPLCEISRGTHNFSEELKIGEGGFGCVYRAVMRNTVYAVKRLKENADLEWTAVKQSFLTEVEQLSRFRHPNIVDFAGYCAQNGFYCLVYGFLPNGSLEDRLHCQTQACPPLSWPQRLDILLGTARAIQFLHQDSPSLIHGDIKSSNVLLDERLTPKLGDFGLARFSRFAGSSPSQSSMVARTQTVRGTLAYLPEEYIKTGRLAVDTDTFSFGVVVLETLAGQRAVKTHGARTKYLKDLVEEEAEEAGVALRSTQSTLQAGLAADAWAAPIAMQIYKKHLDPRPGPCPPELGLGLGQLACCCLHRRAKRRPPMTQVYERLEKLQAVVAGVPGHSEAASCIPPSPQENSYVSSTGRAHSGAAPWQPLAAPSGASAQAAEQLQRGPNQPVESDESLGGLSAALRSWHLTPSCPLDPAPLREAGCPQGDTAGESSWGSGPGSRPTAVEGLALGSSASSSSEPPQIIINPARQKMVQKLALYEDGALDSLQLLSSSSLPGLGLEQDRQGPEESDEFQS

IC50 (IRAK1) [nM]	IC50 (IRAK4) [nM]	melting point [°C]	SMILES	IC50 [1] [nM]
100 to 1000	≤ 100	95 to 96	CN1CC(c2ccc3c(c2)nc(NC(=O)c2cccc(C(F)F)c2)n3CCCO)C(C)(C)C1=O (stereo not drawn) [Compound 27, 3-Difluoromethyl-N-[1-(3-hydroxy-propyl)-5-(1,4,4-trimethyl-5-oxo-pyrrolidin-3-yl)-1H-benzoimidazol-2-yl]-benzamide]	100 to 1000
100 to 1000	≤ 100	121 to 124	CN1CCOC(c2ccc3c(c2)nc(NC(=O)c2cccc(C(F)(F)F)c2)n3CC(C)(F)CO)C1=O (stereo not drawn) [Compound 28, N-[1-(2-Fluoro-3-hydroxy-2-methyl-propyl)-5-(4-methyl-3-oxo-morpholin-2-yl)-1H-benzoimidazol-2-yl]-3-trifluoromethyl-benzamide]	≤ 100
100 to 1000	≤ 100	99 to 100	CN1C(=O)CCC1(C)c1ccc2c(c1)nc(NC(=O)c1cccc(C(F)(F)F)c1)n2CCCO (stereo not drawn) [Compound 32, N-[5-(1,2-Dimethyl-5-oxo-pyrrolidin-2-yl)-1-(3-hydroxy-propyl)-1H-benzoimidazol-2-yl]-3-trifluoromethyl-benzamide]	1000 to 10000
